Results from US11331290B2, “Niclosamide for the treatment of cancer metastasis” (Max-Delbrück-Centrum für Molekulare Medizin in der …, priority 2011, dated 2022).

Biological target: T1, CTNNB1/TCF complex (Homo sapiens, UniProt P35222, DEL45-45)
T1 construct: endogenous in cells; host or cells: HCT116 nuclear extract
T1 sequence (P35222 1-781): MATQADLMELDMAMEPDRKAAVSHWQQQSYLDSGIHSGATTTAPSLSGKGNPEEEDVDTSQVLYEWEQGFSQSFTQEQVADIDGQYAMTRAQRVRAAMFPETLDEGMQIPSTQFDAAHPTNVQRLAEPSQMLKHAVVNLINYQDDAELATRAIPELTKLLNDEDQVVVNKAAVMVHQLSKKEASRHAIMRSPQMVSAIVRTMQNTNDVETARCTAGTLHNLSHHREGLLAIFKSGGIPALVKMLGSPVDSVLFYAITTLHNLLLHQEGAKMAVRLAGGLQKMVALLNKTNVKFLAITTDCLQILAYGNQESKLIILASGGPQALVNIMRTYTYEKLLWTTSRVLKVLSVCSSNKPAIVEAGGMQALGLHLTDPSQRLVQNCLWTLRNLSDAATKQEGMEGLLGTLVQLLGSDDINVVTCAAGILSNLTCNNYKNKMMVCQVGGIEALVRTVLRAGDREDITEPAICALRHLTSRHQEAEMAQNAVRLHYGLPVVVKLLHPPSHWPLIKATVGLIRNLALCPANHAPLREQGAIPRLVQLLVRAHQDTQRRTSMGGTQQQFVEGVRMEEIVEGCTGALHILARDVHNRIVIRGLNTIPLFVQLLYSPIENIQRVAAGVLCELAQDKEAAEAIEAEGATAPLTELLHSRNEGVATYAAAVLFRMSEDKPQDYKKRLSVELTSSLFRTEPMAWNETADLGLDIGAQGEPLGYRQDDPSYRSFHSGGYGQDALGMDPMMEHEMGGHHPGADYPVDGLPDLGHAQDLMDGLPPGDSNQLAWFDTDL
T1 sequence (P35222 with tags, fused parts or gaps DEL45-45): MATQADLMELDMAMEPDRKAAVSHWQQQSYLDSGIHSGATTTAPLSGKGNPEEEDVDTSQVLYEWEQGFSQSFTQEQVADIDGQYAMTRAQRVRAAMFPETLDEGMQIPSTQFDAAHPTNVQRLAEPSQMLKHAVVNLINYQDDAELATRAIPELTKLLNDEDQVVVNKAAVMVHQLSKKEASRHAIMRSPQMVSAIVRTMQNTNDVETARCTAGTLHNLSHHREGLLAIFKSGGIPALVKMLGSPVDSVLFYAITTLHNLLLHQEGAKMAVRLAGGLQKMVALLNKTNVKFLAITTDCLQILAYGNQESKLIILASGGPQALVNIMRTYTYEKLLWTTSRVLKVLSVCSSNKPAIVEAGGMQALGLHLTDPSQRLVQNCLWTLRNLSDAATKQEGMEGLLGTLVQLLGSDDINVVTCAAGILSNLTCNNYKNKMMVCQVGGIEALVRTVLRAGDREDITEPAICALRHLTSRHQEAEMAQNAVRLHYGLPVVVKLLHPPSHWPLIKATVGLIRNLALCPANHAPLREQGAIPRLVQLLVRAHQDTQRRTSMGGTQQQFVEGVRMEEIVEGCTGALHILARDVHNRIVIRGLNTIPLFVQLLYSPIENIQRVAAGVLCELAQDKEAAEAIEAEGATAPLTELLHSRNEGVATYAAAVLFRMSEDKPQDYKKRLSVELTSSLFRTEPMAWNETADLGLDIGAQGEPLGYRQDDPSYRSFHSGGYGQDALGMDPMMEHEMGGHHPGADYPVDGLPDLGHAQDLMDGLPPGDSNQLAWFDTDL
Experiment: Electrophoretic mobility shift assay (EMSA), TCF-binding site of the S100A4 promoter
Assay type: cell-based
Experimental: Electrophoretic mobility shift assay (EMSA) was performed as described earlier (4). 5×10^6 HCT116 cells were plated into a 10 cm culture dish and were given 15 hour to attach to the bottom of the dish. Cells were treated with 0.1, 0.3, 0.6 or 1 μM niclosamide or the respective amount of DMSO for 24 hours. For each condition 5 μg nuclear extracted protein was incubated 30 minutes at room temperature with 0.05% w/v poly dI⋅dC, 0.5 mM Tris, 0.05 mM EDTA, 2.5% v/v glycerol, 0.2% v/v NP-40, 5 mM MgCl2 and double-stranded biotinylated oligonucleotides (sense 5′-[…]-3′, antisense 3′-[…] T-5′) encompassing the TCF-binding site of the S100A4 promoter. For supershift 1.25 μg monoclonal CTNNB1 antibody (BD Biosciences) was added. […]
For WNT pathway analysis the following cells were applied: HCT116 cells (heterozygous for gain-of-function-mutated CTNNB1; wt/mut), HAB-68mut cells (deletion mutant of HCT116, expressing only gain-of-function-mutated CTNNB1: −/mut) and HAB-92 wt cells (deletion mutant of HCT116, expressing only wild-type CTNNB1: wt/−). […] Reporter gene expression was determined by luciferase activity measurement. […] S100A4 expression was analyzed by qRT-PCR and immunoblot. […] Cells were treated with 1 μM niclosamide for 24 hours and cell migration was determined by Boyden chamber assay. […] Differences were analyzed by Student's t test (n.s.; not statistically significant). […]

With `O=C(Nc1ccc([N+](=O)[O-])cc1Cl)c1cc(Cl)ccc1O` [niclosamide, 2′,5-dichloro-4′-nitrosalicylanilide] the “supershift with monoclonal anti-CTNNB1” value (nuclear extracts from 1 μM niclosamide-treated HCT116 cells) was “No supershift could be detected” and the CTNNB1/TCF/oligo complex (nuclear extracts of HCT116 cells, increasing concentrations (0.1, 0.3, 0.6 or 1 μM)) was “interrupted the CTNNB1/TCF/oligo complex in a concentration-dependent manner”.
